Reference: patent publication US20090305954A1, “HISTIDINE-CONTAINING DIASTEREOMERIC PEPTIDES AND USES THEREOF” (Yeda Research and Development Co. Ltd., priority 2005, published 2009)
Values after ≈ are worked out from the molar mass of the structure shown. Square brackets hold non-standard residues; d marks the D form. Peptide text beside a SMILES is read from it.

Columns and labels:
[1] = test system: PC3 human prostate cancer cell line; experiment: XTT proliferation (cytotoxicity) assay, PC3; assay type: cell-based; settings: PC3, pH 7.4, 24 h
Experimental: (§1) The CL1 human prostate carcinoma (PC) cell line is an androgen-independent (AI) subclone of LNCaP cell line, which was generated by culturing androgen-dependent (AD) LNCaP cells in charcoal-stripped, […], as described (Patel et al. 2000). 22RV1 human PC cells are AI sub-clones of the AD prostatic adenocarcinoma CWR22 xenograft (Sramkoski et al. 1999). CL1 and 22RV1 (ATCC, USA) were grown in RPMI-1640 supplemented with 10% FCS (Biological Industries, Beit Haemek, Israel). PC3 and DU145 are androgen-insensitive (AI) (non-responsive), invasive human prostate cancer cell lines. NIH-3T3 mouse fibroblast cell lines (ATCC, USA) were grown in DMEM supplemented with 10% BS. Murine Lewis lung carcinoma (LLC) cell lines were also grown in DMEM medium supplemented with 10% fetal calf serum and antibiotics under the same conditions as above.
(§2) The anticancer activity of the diastereomers 1, 5 and 11-16, 36-39, 42 and 44 was examined against human CL1 prostate cancer, murine LLC (Lewis lung carcinoma), DU 145 and PC3 cell lines. The cell selectivity of the diastereomeric peptides was also studied by examining their effect on NIH-3T3 normal mouse fibroblasts cell line.
A 96-well plate (Falcon) was used for the XTT proliferation assay. Cancer cells were grown for 24 hours (day 1) in RPMI-1640 medium (5×10^3, 7×10^3, 1×10^4 and 7×10^3 cells/100 μl for LLC, CL1, 22RVI, DU 145 and PC3, respectively) supplemented with 10% fetal calf serum and antibiotics, at 37° C., in humidified atmosphere at 5% CO2 and 95% air, resulting in growth medium pH of 7.4. […]
In day 3, XTT reaction solution was prepared by adding to 100 μl aliquots of activation solution (sodium 3′-[1-(phenyl-aminocarbonyl)-3,4-tetrazolium]-bis(4-methoxy-6-nitro) benzene sulfonic acid hydrate and N-methyl dibenzopyrazine methyl sulfate; mixed in a proportion of 50:1) (protected from light and kept in −20° C.), the substrate. […] The optical density was read at wavelength of 450 nm in an ELISA plate reader. Cell viability was determined relative to the control and final results were recorded. […]

[2] = test system: DU145 human prostate cancer cell line; experiment: XTT proliferation (cytotoxicity) assay, DU145; assay type: cell-based
Experimental: as §1, §2
(§3) A 96-well plate (Falcon) was used for the XTT proliferation assay. Cancer cells were grown for 24 hours (day 1) in RPMI-1640 medium ([…] cells/100 μl for LLC, CL1, 22RVI, DU 145 and PC3, respectively) supplemented with 10% fetal calf serum and antibiotics, at 37° C., in humidified atmosphere at 5% CO2 and 95% air, resulting in growth medium pH of 7.4. NIH-3T3 fibroblast cells (1×10^4 cells/100 μl) were grown in DMEM medium supplemented with 10% bovine calf serum and antibiotics under the same conditions as described above for the cancerous cells. Wells in the last two rows served as blanks (medium only, for measuring the background color of the medium) and 100% survival controls (cells and medium only without treatment), respectively.
(§4) In day 2, the peptides were dissolved in sterile PBS to a concentration of 200 μM (or 500 μM). The medium in the assay wells was replaced with 100 μl serum free medium. For the assays at pH 6, the medium was initially concentrated (×5 or ×10) and then diluted with double distilled water and addition of sodium carbonate. Before reaching the correct dilution, the medium was adjusted to pH 6 and then more water was added to reach the final dilution. The cells were grown in physiological pH, and the acidic pH was used only during the 24 hours incubation with the peptides. A sign for the correct acidity was a light yellow color of the medium. In line A of the plate, 160 μl of serum free medium was added, if the initial peptide concentration was 500 μM.
(§5) Peptide solutions, 100 μl (or 40 μl) were added to each assay well in line A, such that the final concentration of the peptide was […] and the volume 200 μl. The medium in the wells was mixed with multichannel pipette 5 times and 100 μl of it were transferred to the next row of wells (line B), to give a peptide concentration of 50 μM. The double dilution of the peptides continued downstream the plate in the same manner. The plates were then incubated for 24 h.
(§6) In day 3, XTT reaction solution was prepared by adding to 100 μl aliquots of activation solution (sodium 3′-[1-(phenyl-aminocarbonyl)-3,4-tetrazolium]-bis(4-methoxy-6-nitro) benzene sulfonic acid hydrate and N-methyl dibenzopyrazine methyl sulfate; mixed in a proportion of 50:1) (protected from light and kept in −20° C.), the substrate. 50 μl of XTT reaction solution were added to each well and the plates were incubated for 2 hours (37° C. and 5% CO2+95% air. In cases the incubation was not enough for the creation of the color, it was extended for up to 24 hours). The optical density was read at wavelength of 450 nm in an ELISA plate reader. Cell viability was determined relative to the control and final results were recorded. The results were confirmed using replications in at least three independent experiments. […]

22RV1 human PC cells = experiment: XTT proliferation (cytotoxicity) assay, 22RV1; assay type: cell-based
Experimental: as §1, §3, §4, §5
In day 3, XTT reaction solution was prepared by adding to 100 μl aliquots of activation solution (sodium 3′-[1-(phenyl-aminocarbonyl)-3,4-tetrazolium]-bis(4-methoxy-6-nitro) benzene sulfonic acid hydrate and N-methyl dibenzopyrazine methyl sulfate; mixed in a proportion of 50:1) (protected from light and kept in −20° C.), the substrate. 50 μl of XTT reaction solution were added to each well and the plates were incubated for 2 hours (37° C. and 5% CO2+95% air. In cases the incubation was not enough for the creation of the color, it was extended for up to 24 hours). The optical density was read at wavelength of 450 nm in an ELISA plate reader. Cell viability was determined relative to the control and final results were recorded. The results were confirmed using replications in at least three independent experiments. The LC50 for each peptide was obtained from the curve of cell viability versus concentration of peptide and taken from the concentration at which cell viability was 50%. The data shown in Table 1 are for only one experiment, but representative of all replications.

[3] = test system: Murine Lewis lung carcinoma (LLC) cell line; experiment: XTT proliferation (cytotoxicity) assay, LLC; assay type: cell-based
Experimental: as §1, §2, §3, §4, §5, §6

[4] = test system: pepsin, trypsin, and elastase; experiment: Resistance to proteolytic digestion (reverse-phase HPLC); assay type: in vitro ADME; settings: after 2 hr, 140 μM peptide, 25 μM protease, 37° C.
Experimental: In order to reach their target, the diastereomers have to withstand proteolytic digestion of proteases, which may occur after their administration and during the time until they reach the target site. The susceptibility of the peptides 13 and 14 to proteolytic digestion by pepsin (from porcine stomach mucosa, Sigma), trypsin (from bovine pancreas, Sigma), and elastase (from human leukocytes, Sigma) was assessed by reverse-phase HPLC. As a negative control, the all L-amino acid analog peptides were used. Equal amounts of the peptides were dissolved in PBS (35 mM phosphate buffer/0.15 M NaCl, pH 7.3) at a final concentration of 140 μM, to which 25 μM of protease were added. […] After the addition of the appropriate protease inhibitor to stop the reaction, aliquots were injected to C18 column and the amounts of the intact peptides 13 and 14 and their all L analogs were evaluated using their absorbance at 215 nm.

[5] = test system: NIH-3T3 normal mouse fibroblasts cell line; experiment: XTT proliferation (cytotoxicity) assay, normal fibroblasts; assay type: cell-based; settings: NIH3T3, pH 7.4, 24 h
Experimental: as §1, §2, §3, §4, §5, §6

[6] = as above; assay type: cell-based, mouse; settings: mouse, NIH-3T3 normal mouse fibroblasts; NIH3T3, pH 6, 24 h; read-out: Lethal Concentration (LC50)
Experimental: as §1, §2, §3, §4, §5, §6

[7] = test system: CL1 human prostate carcinoma cell line; experiment: XTT proliferation (cytotoxicity) assay, CL1; assay type: cell-based
Experimental: as §1, §2, §3, §4, §5, §6

CC(C)C[C@H](NC(=O)[C@H](CC(C)C)NC(=O)[C@@H](CCCCN)NC(=O)[C@H](CC(C)C)NC(=O)[C@H](CC(C)C)NC(=O)[C@H](Cc1c[nH]cn1)NC(=O)[C@@H](CCCCN)NC(=O)[C@@H](CC(C)C)NC(=O)[C@H](CC(C)C)NC(=O)[C@@H](CCCCN)NC(=O)[C@H](Cc1c[nH]cn1)NC(=O)[C@H](CC(C)C)NC(=O)[C@@H](CC(C)C)NC(=O)[C@H](Cc1c[nH]cn1)NC(=O)[C@@H](N)CC(C)C)C(N)=O [Peptide 14] (H-LH[dL]LH[dK]L[dL][dK]HLL[dK]LL-NH2)
Lethal Concentration (LC50) [1]: 18.7 µg/mL | Lethal Concentration (LC50) ([2]; DU145, pH 6, 24 h): 9.3 µg/mL | Lethal Concentration (LC50) ([2]; DU145, pH 7.4, 24 h): 12.5 µg/mL | Lethal Concentration (LC50) (22RV1 human PC cells; 22RV1, pH 6, 24 h): 12.5 µg/mL | Lethal Concentration (LC50) (22RV1 human PC cells; 22RV1, pH 7.4, 24 h): 25 µg/mL | Lethal Concentration (LC50) ([3]; pH 6, 24 h): 25 µg/mL | Lethal Concentration (LC50) ([3]; pH 7.4, 24 h): 50 µg/mL | proteases digestion [4]: ~50% | Lethal Concentration (LC50) [5]: 100 µg/mL | CC50 at 24 h [6]: 25 µg/mL (≈ 13.7 µM) | Lethal Concentration (LC50) ([7]; CL1, pH 6, 24 h): 12.5 µg/mL | Lethal Concentration (LC50) ([7]; CL1, pH 7.4, 24 h): 12.5 µg/mL | activity compared with peptide 1 ([7]; CL1 and 22RVI, pH 7.4): half as active | active concentration lower than against NIH-3T3 ([7]; CL1 vs NIH-3T3, pH 7.4): 8 fold | active concentration lower than against NIH-3T3 ([7]; CL1 vs NIH-3T3 at the same pH): at least two-fold lower
